In patent publication US4677069A, “Clam derived proteinases” (priority 1984, dated 1987):
Structures can show the parent of a compound that is named as a salt. *1 amine or outer side, *2 acyl side, *3 side chain or, on linkers, in order; H or OH if unused. Where a SMILES comes first, the peptide text is derived from it. [ ]: non-standard residue; d: D form. The star is where a group is joined. Sta = CC(C)C[C@H](N)[C@@H](O)CC(=O)O; Isovaleryl = CC(C)CC(=O)*; CO = O=C([*:1])[*:2]

How the values were obtained:
PI & II [1] = assay: Heavy metal effect on proteolytic activity of PI & II; assay type: biochemical, surf clam, Spisula solidissima; settings: for PI & II % Retention / PI & II Activity (HU/ml): metal ions 0.5 mM, pH 2.8; for PI & II Activity (HU/ml): control 214.7
Procedure: (§1) The effect of heavy metals on proteolytic activity was determined by preincubating a mixture of 5 mM heavy metal stock solution (0.3 ml), 0.2M citrate-phosphate buffer at pH 2.8 (1.6 ml) and enzyme solution (0.1 ml) at room temperature for 10 min before the addition of substrate. All stock solutions of metals were made from chloride salts, except that silver was prepared from the nitrate salt.

PIII [2] = assay: Heavy metal effect on proteolytic activity of PIII; assay type: biochemical, surf clam, Spisula solidissima; settings: for PIII % Retention / PIII Activity (HU/ml): metal ions 0.5 mM, pH 2.8; for PIII Activity (HU/ml): control 258.7; for effect of metal ion on PIII: general assay procedure
Procedure: as §1

P2.2 enzyme = assay: Stabilization of P2.2 activity with reducing and chelating agents; settings: EDTA or cysteine alone
[3] = cited from earlier work; for Optimum pH: Table 7, literature
PI & II [4] = assay: Inhibitor effect on proteolytic activity of PI & II; assay type: biochemical, surf clam, Spisula solidissima
Procedure: All inhibitors were from Sigma Co. (St. Louis, MO). The stock solutions were prepared by dissolving the inhibitors either in water or dimethyl sulfoxide (DMSO) as following:
(§2) Water--Leupeptin hemisulfate (60 ug/ml), Antipain (60 ug/ml), Poly-L-lysine(60 mg/ml), soybean trypsin inhibitor (60 mg/ml), ovomucoid trypsin inhibitor (60 mg/mL), Tosyl-lysine chloromethyl ketone (TLCK, 60 mM) and iodoacetamide (60 mM).
(§3) DMSO--Pepstatin (60 ug/ml), Tosyl-phenylalanine chloromethyl ketone (TPCK, 60 mM), Phenylmethanesulphonylfluoride (PMSF, 60 mM), and Diazoacetylnorleucine methyl ester (DNME, 60 mM).

PIII [5] = assay: Inhibitor effect on proteolytic activity of PIII; assay type: biochemical, surf clam, Spisula solidissima
Procedure: The effect of inhibitors on proteolytic activity was determined by preincubating a mixture of inhibitor stock solution (0.05 ml), 0.2M citrate-phosphate buffer at pH 2.8 (1.7 ml) and enzyme solution (0.25 ml) for 10 min at room temperature before the addition of substrate. All inhibitors were from Sigma Co. (St. Louis, MO). The stock solutions were prepared by dissolving the inhibitors either in water or dimethyl sulfoxide (DMSO) as following:
as §2, §3

[6] = 1 ug/ml, pH 2.8, 10 min preincubation

## [Cd+2] [Cd++]
PI & II [1]
  PI & II % Retention: 96.3%
  PI & II Activity (HU/ml): 206.7 HU/ml
PIII [2]
  PIII % Retention: 96.4%
  PIII Activity (HU/ml): 249.4 HU/ml

## Cl.N[C@@H](CS)C(=O)O [Cysteine-HCl]
P2.2 enzyme
  optimum concentration for stabilizing P2.2, reagent alone: 2.5 mM

## [Zn+2] [Zn++]
PI & II [1]
  PI & II % Retention: 90.4%
  PI & II Activity (HU/ml): 194.0 HU/ml
PIII [2]
  PIII % Retention: 103.1%
  PIII Activity (HU/ml): 266.7 HU/ml

## [Ag+] [Ag+]
PI & II [1]
  PI & II % Retention: 102.2%
  PI & II Activity (HU/ml): 219.3 HU/ml
PIII [2]
  PIII % Retention: 95.0%
  PIII Activity (HU/ml): 245.8 HU/ml

## Cathepsin D: mammalian carboxyl proteinase, literature comparator
[3]
  Optimum pH: 2.8-5.0
[3]; Table 11, literature
  Activators, mammalian cathepsins: none
  Temperature optima, mammalian cathepsins: 45 °C
  pH optima hemoglobin, mammalian cathepsins: 2.8-3.5
[3]; unstable at pH > 7, literature
  pH stability, mammalian cathepsins: unstable

## cathepsin L: thiol proteinase, liver
[3]
  Optimum pH: 5.0-5.5

## Kallikrein
[3]
  Optimum pH: 8.6-8.8

## CC(=O)N[C@@H](CC(C)C)C(=O)N[C@@H](CC(C)C)C(=O)N[C@H](C=O)CCCNC(=N)N [Leupeptin hemisulfate]
PI & II [4]; [6]
  % Residual activity PI & II, final conc. 1 ug/ml: 96.5%
PIII [5]
  effect of inhibitor on PIII: inhibited
PIII [5]; [6]
  % Residual activity PIII, final conc. 1 ug/ml: 33.4%

## Elastase
[3]
  Optimum pH: 8.2-8.5

## CC(C)CC(=O)N[C@H](C(=O)N[C@H](C(=O)N[C@@H](CC(C)C)[C@@H](O)CC(=O)N[C@@H](C)C(=O)N[C@@H](CC(C)C)[C@@H](O)CC(=O)O)C(C)C)C(C)C [Pepstatin] (Isovaleryl-VV[Sta]A[Sta]-OH)
PI & II [4]
  effect of inhibitor on PI&II: strongly inhibited
PI & II [4]; [6]
  % Residual activity PI & II, final conc. 1 ug/ml: 25.0%
PIII [5]; [6]
  % Residual activity PIII, final conc. 1 ug/ml: 99.4%

## [Pb+2] [Pb++]
PI & II [1]
  PI & II % Retention: 99.7%
  PI & II Activity (HU/ml): 214.0 HU/ml
PIII [2]
  effect of metal ion on PIII: didn't inhibit
  PIII % Retention: 96.9%
  PIII Activity (HU/ml): 250.7 HU/ml
PIII [2]; reversed addition order
  PIII activity detected, addition order of buffer and inhibitor solution reversed: 20.7%

## [Cu+2] [Cu++]
PI & II [1]; at or below 1 mM cupric ion
  effect of cupric ion on PI&II at or below 1 mM: not sensitive
PI & II [1]
  PI & II % Retention: 95.7%
  PI & II Activity (HU/ml): 205.4 HU/ml
PIII [2]; 1 mM cupric ion
  effect of cupric ion on PIII at 1 mM: Almost total inactivation
PIII [2]
  effect of metal ion on PIII: very sensitive
  PIII % Retention: 18.0%
  PIII Activity (HU/ml): 46.7 HU/ml

## Cc1ccc(S(=O)(=O)NC(CCCCN)C(=O)CCl)cc1 (centres unmarked) [TLCK, tosyllysine chloromethyl ketone]
PI & II [4]; pH 2.8, 10 min preincubation
  % Residual activity PI & II, final conc. 1 mM: 96.2%
PIII [5]
  effect of inhibitor on PIII: inhibited
PIII [5]; pH 2.8, 10 min preincubation
  % Residual activity PIII, final conc. 1 mM: 16.8%

## NC(=O)CI [Iodoacetamide]
PI & II [4]; pH 2.8, 10 min preincubation
  % Residual activity PI & II, final conc. 1 mM: 98.9%
PIII [5]
  effect of inhibitor on PIII: inhibited
PIII [5]; pH 2.8, 10 min preincubation
  % Residual activity PIII, final conc. 1 mM: 78.3%

## Pepsin
[3]; Table 7, graded + to +++, literature
  General proteolysis: ++ +
[3]
  Optimum pH: 1.7-2.0

## [Ca+2] [Ca++]
PI & II [1]
  PI & II % Retention: 97.5%
  PI & II Activity (HU/ml): 209.4 HU/ml
PIII [2]
  PIII % Retention: 99.2%
  PIII Activity (HU/ml): 256.7 HU/ml

## [Co+2] [Co++]
PI & II [1]
  PI & II % Retention: 96.9%
  PI & II Activity (HU/ml): 208.0 HU/ml
PIII [2]
  PIII % Retention: 90.7%
  PIII Activity (HU/ml): 234.7 HU/ml

## [Mg+2] [Mg++]
PI & II [1]
  PI & II % Retention: 98.5%
  PI & II Activity (HU/ml): 211.4 HU/ml
PIII [2]
  PIII % Retention: 98.2%
  PIII Activity (HU/ml): 254.0 HU/ml

## Renin
[3]
  Optimum pH: 5.5-8.0

## [Hg+2] [Hg++]
PI & II [1]
  PI & II % Retention: 87.1%
  PI & II Activity (HU/ml): 187.0 HU/ml
PIII [2]
  effect of metal ion on PIII: extremely sensitive
  PIII % Retention: 0.0%
  PIII Activity (HU/ml): 0.0 HU/ml

## CC(C)[C@H](NC(=O)[C@H](CCCNC(=N)N)NC(=O)N[C@@H](Cc1ccccc1)C(=O)O)C(=O)N[C@H](C=O)CCCNC(=N)N [Antipain di-HCl] ({Phe-CO}-Arg-Val-Arg-aldehyde)
PI & II [4]; [6]
  % Residual activity PI & II, final conc. 1 ug/ml: 102.9%
PIII [5]; [6]
  % Residual activity PIII, final conc. 1 ug/ml: 89.7%

## Poly-L-lysine
PI & II [4]; pH 2.8
  % Residual activity PI & II, final conc. 1 ug/ml: 99.3%
PIII [5]; pH 2.8
  % Residual activity PIII, final conc. 1 ug/ml: 101.1%

## Chymotrypsin
[3]
  Optimum pH: ~ 8.0

## Cathepsin G
[3]
  Optimum pH: ~ 7.5

## [Ni+2] [Ni++]
PI & II [1]
  PI & II % Retention: 96.0%
  PI & II Activity (HU/ml): 206.0 HU/ml
PIII [2]
  PIII % Retention: 92.5%
  PIII Activity (HU/ml): 239.4 HU/ml

## CCCC[C@H](NC(=O)C=[N+]=[N-])C(=O)OC [DNME, diazoacetylnorleucine methyl ester]
PI & II [4]; pH 2.8, 10 min preincubation
  % Residual activity PI & II, final conc. 1 mM: 100.0%
PI & II [4]; with cupric ions, up to 4 hours of preincubation
  effect of DNME on PI&II in the presence of cupric ions: not sensitive
PIII [5]
  effect of inhibitor on PIII: very sensitive
PIII [5]; pH 2.8, 10 min preincubation
  % Residual activity PIII, final conc. 1 mM: 64.9%

## Urokinase
[3]
  Optimum pH: 7.5-7.6

## Trypsin
[3]
  Optimum pH: ~ 8.0

## [Sn+2] [Sn++]
PI & II [1]
  PI & II % Retention: 88.8%
  PI & II Activity (HU/ml): 190.6 HU/ml
PIII [2]
  effect of metal ion on PIII: inhibits PIII slightly
  PIII % Retention: 83.7%
  PIII Activity (HU/ml): 216.5 HU/ml

## O=S(=O)(F)Cc1ccccc1 [PMSF, phenylmethanesulphonylfluoride]
PI & II [4]; pH 2.8, 10 min preincubation
  % Residual activity PI & II, final conc. 1 mM: 102.2%
PIII [5]
  effect of inhibitor on PIII: inhibited
PIII [5]; pH 2.8, 10 min preincubation
  % Residual activity PIII, final conc. 1 mM: 53.5%

## O=C(O)CN(CCN(CC(=O)O)CC(=O)O)CC(=O)O [Na2 --EDTA]
P2.2 enzyme
  optimum concentration for stabilizing P2.2, reagent alone: 10 mM

## Cc1ccc(S(=O)(=O)NC(Cc2ccccc2)C(=O)CCl)cc1 (centres unmarked) [TPCK, tosylphenylalanine chloromethyl ketone]
PI & II [4]; pH 2.8, 10 min preincubation
  % Residual activity PI & II, final conc. 1 mM: 96.4%
PIII [5]
  effect of inhibitor on PIII: inhibited
PIII [5]; pH 2.8, 10 min preincubation
  % Residual activity PIII, final conc. 1 mM: 21.2%

B1: Gastricin: carboxyl proteinase, stomach (protein, UniProt P20142 60-388, looked up)
Gastricsin: SVTYEPMAYMDAAYFGEISIGTPPQNFLVLFDTGSSNLWVPSVYCQSQACTSHSRFNPSESSTYSTNGQTFSLQYGSGSLTGFFGYDTLTVQSIQVPNQEFGLSENEPGTNFVYAQFDGIMGLAYPALSVDEATTAMQGMVQEGALTSPVFSVYLSNQQGSSGGAVVFGGVDSSLYTGQIYWAPVTQELYWQIGIEEFLIGGQASGWCSEGCQAIVDTGTSLLTVPQQYMSALLQATGAQEDEYGQFLVNCNSIQNLPSLTFIINGVEFPLPPSSYILSNNGYCTVGVEPTYLSSQNGQPLWILGDVFLRSYYSVYDLGNNRVGFATAA
[3]
  Optimum pH: 3.0
